Measurements: ChEMBL document CHEMBL1145393, “Synthesis and antitumour activity of new tiazofurin analogues bearing a 2,3-anhydro functionality in the furanose ring” (Bioorg Med Chem Lett, 2007)

How the values were obtained:
HL-60 = test: Cytotoxicity against human HL60 cell line after 48 hrs by MTT assay; format: cell-based; settings: HL-60, 48 h
Jurkat = test: Cytotoxicity against human Jurkat T cells after 48 hrs by MTT assay; format: cell-based
MCF7 = test: Cytotoxicity against human MCF7 cell line after 48 hrs by MTT assay; format: cell-based; settings: MCF7, 48 h
Raji = test: Cytotoxicity against human Raji cells after 48 hrs by MTT assay; format: cell-based
K562 = test: Cytotoxicity against human K562 cells after 48 hrs by MTT assay; format: cell-based; settings: K562, 48 h
MRC5 = test: Cytotoxicity against human MRC5 cell line after 48 hrs by MTT assay; format: functional, cell-based; settings: MRC5, 48 h
HT-29 = test: Cytotoxicity against human HT29 cell line after 48 hrs by MTT assay; format: cell-based; settings: HT-29, 48 h

| Structure (SMILES) | IC50 (HL-60) [nM] | IC50 (Jurkat) [nM] | IC50 (MCF7) [nM] | IC50 (Raji) [nM] | IC50 (K562) [nM] | IC50 (MRC5) [nM] | IC50 (HT-29) [nM] |
| --- | --- | --- | --- | --- | --- | --- | --- |
| NC(=O)c1csc(C[C@@H]2O[C@H](CO)[C@H]3O[C@H]32)n1 | 3500 | 2180 | 9090 | 70 | 490 | > 100000 | 90 |
| NC(=O)c1csc(C[C@H]2O[C@H](CO)[C@H]3O[C@H]32)n1 | > 100000 | 11000 | 10000 | > 100000 | 90 | > 100000 | 530 |
| NC(=O)c1csc([C@@H]2O[C@H](CO)[C@H]3O[C@H]32)n1 | 2080 | 4840 | 960 | 540 | 190 | > 100000 | > 100000 |
| NC(=O)c1csc([C@@H]2O[C@H](CO)[C@@H](O)[C@H]2O)n1 [TIAZOFURIN] | 1840 | 510 | 6390 | 16100 | – | 490 | 890 |
